According to patent US20250099596A1, “TETRAHYDRONAPHTHALENE COMPOUND, AND PREPARATION METHOD THEREFOR AND USE THEREOF IN MEDICINE” (Jiangsu Hengrui Pharmaceuticals Co., Ltd., priority 2021, published 2025):
Like-named read-outs stand apart in the source and are kept apart here.

Test: Pharmacokinetic evaluation, C57 mouse test
Format: in vivo
Conditions: C57 mice; for AUC(0-t): read-out: Area under curve AUC0-t; for half-life: read-out: Half-life T1/2 (converted); for Cmax: read-out: Plasma concentration Cmax
Description: With C57 mice as test animals, the plasma concentration of the compound of Example 26-1 was determined by LC/MS/MS at different time points after intragastric (i.g.)/intravenous (i.v.) administration to C57 mice. The pharmacokinetic behavior of the compound of the present disclosure in C57 mice was studied and its pharmacokinetic profile was evaluated.
Eighteen female C57 mice were evenly divided into 2 groups and fasted overnight, and the 2 groups were dosed intragastrically and intravenously, respectively. The mice were provided by Zhejiang Vital River Laboratory Animal Technology Co., Ltd.
An appropriate amount of the compound of Example 26-1 was weighed out and mixed with 5% DMSO+5% Tween 80+90% normal saline to make a 0.1 mg/mL colorless clear solution (for the intragastric administration group) and a 0.1 mg/mL colorless clear solution (for the intravenous administration group).
The intragastric administration group: the dose was 2.0 mg/kg, and the volume was 0.2 mL/10 g.
The intravenous administration group: the dose was 1.0 mg/kg, and the volume was 0.1 mL/10 g.
The intragastric administration group: Blood (0.1 mL) was collected into EDTA-K2 anticoagulation tubes before administration and 0.25 h, 0.5 h, 1.0 h, 2.0 h, 4.0 h, 6.0 h, 8.0 h, 11.0 h and 24.0 h after administration and centrifuged at 10,000 rpm for 1 min (4° C.). The plasma was separated within 1 h and stored at −20° C. before analysis. The process from blood collection to centrifugation was performed in an ice bath. Two hours after administration, feeding was resumed.
The intravenous administration group: Blood was collected before administration and 5 min, 15 min, 0.5 h, 1.0 h, 2.0 h, 4.0 h, 8.0 h, 11.0 h and 24 h after administration and processed as in the intragastric administration group.
The plasma concentration of the test compound was determined after administration of different concentrations of the test compound to C57 mice: plasma samples (25 μL) were collected from C57 mice at various time points after administration, proteins were precipitated with 200 μL of acetonitrile, and 50 μL of camptothecin (100 ng/mL) was added. The mixtures were vortexed for 5 min and centrifuged at 4000 rpm for 10 min. […] of supernatant was collected for LC-MS/MS analysis.

[1] = female, mouse, plasma, iv, i.v., 1.0 mg/kg
[2] = female, mouse, plasma, po, i.g., 2.0 mg/kg

Structure (SMILES): CC(C)C[C@H]1CCc2cc(O)ccc2[C@H]1c1ccc(N2CCC(CN3CCN(c4ccc5c(c4)CN([C@H]4CCC(=O)NC4=O)C5=O)CC3)CC2)cc1 [Example 26-1, (S)-3-(5-(4-((1-(4-((1R,2R)-6-Hydroxy-2-isobutyl-1,2,3,4-tetrahydronaphthalen-1-yl)phenyl)piperidin-4-yl)methyl)piperazin-1-yl)-1-oxoisoindolin-2-yl)piperidine-2,6-dione]
- Clearance CL/F (i.v., 1.0 mg/kg): 15.4 mL/min/kg
- AUC(0-t) [1]: 1070 ng·h/mL
- half-life [1]: 4 h
- Cmax [1]: 1220 ng/mL
- Vd/F (female, mouse, plasma, po, i.g., 2.0 mg/kg, read-out: Apparent distribution volume Vz/F): 28.3 L/kg
- AUC(0-t) [2]: 517 ng·h/mL
- CL/F (female, mouse, plasma, po, i.g., 2.0 mg/kg, read-out: Clearance CL/F): 62.1 mL/min/kg
- half-life [2]: 5.3 h
- Cmax [2]: 59 ng/mL
